Test results: patent publication US8575165B2, “Methods for treating inflammatory disorders using 2,4-pyrimidinediamine compounds” (Rigel Pharmaceuticals, Inc., priority 2009, dated 2013)

Columns and labels:
IL-23 = assay: In vitro IL-23 assay: IL-23 (p19/p40) ELISA of supernatant from IFNγ-primed THP-1 cells stimulated with SAC; format: cell-based, human; design: key: “+” indicates an increase in production; “−” indicates a decrease in production; settings: effect on expression level of IL-23 in THP-1 cells primed with IFNγ and stimulated with 0.01% SAC; test compound 0.01 μM to 20 μM
Experimental: (§1) Exponentially growing THP-1 cells were plated (100K/well in 100 μL) in standard RPMI media (1% P/S+10% FBS) containing 50 ng/mL IFNγ (1000 U/mL) onto a white clear bottom 96 well plate and leave the cells in 37° C. incubator for 24 h.
(§2) After 24 h incubation, 100 μL of RPMI media containing 2× concentrated test compound per well was added to the above cell-culture media (final concentration of test compound was from 0.01 μM to 20 μM). The plates were pre-incubated for 1 h at 37° C. before being stimulated with SAC.
(§3) After 1 h compound pre-incubation, 10 μL per well of 20× concentrated SAC solution in RPMI media was added to give a final concentration of 0.01%, the plates were shaken and incubated at 37° C. for an additional 18 h.
(§4) 155 μL of the supernatant was harvested from each well and to the remaining 50 μL/well of the cell culture plate was added 50 μL of CELL TITER GLO® reagent. The plates were incubated for 1-2 minutes on a shaker and read for luminescence intensity to determine the compound cytotoxicity.
(§5) The cell culture supernatant collected above was used to carry out IL23 ELISA (65 μL-Supernatant) and IL10 ELISA (90 μL-Supernatant) as described below.
B. Human IL-23 (p19/p40) ELISA Protocol (e-Biosciences)
Cell Culture Supernatant (65 μL from THP-1 cells primed with IFNγ (50 ng/mL-1000 U/mL) and stimulated with 0.01% SAC)
To 10.5 mL PBS was added 50 μL of anti-IL23 (p19) capture antibody (2.5 μg/mL), mixed well and 100 μL of the coating solution was added to each well of the 96 well white plates from Pierce, cover and incubate overnight at 4° C.
The anti-IL23 (p19)-antibody-coated plates were washed 2× using TBST (use plate washer) and the plates were blocked using 200 μL of 0.5% Casein for 1.5-2 h at room temperature with shaking.
The plates were washed 2× using TBST and the supernatant (65 μL/well) was transferred to the above pre-blocked/IL23(p19)-antibody-coated 96 well plate and incubated at RT for 1.5 h with shaking.
The plate was washed 4× using TBST (plate washer) and 100 μL/well of detection antibody solution was added. The detection antibody solution was prepared from 2 μL of biotin labeled anti-IL-12 (p40/p70) antibody in 11 mL 1% BSA/PBS solution (1-5000 dilution). The plates were incubated for 1 hour with shaking at RT.
(§6) Again, the plate was washed 4× with TBST and 100 μL of HRP labeled Streptavidin (R&D Systems) solution (10 μL/10 mL 1% BSA solution) was added and incubated at RT for another 45 min with shaking.
After 45 min, the plate was washed with TBST 4× and 100 μL/well Super Signal ELISA Pico Chemiluminescent Substrate from Pierce (3.5 mL A+3.5 mL B+3.5 mL MQ water) was added, the plate was shaken for 1-2 minutes then read on a plate reader to quantify the amount of IL-23 secreted by the cells.

IL-10 = assay: In vitro IL-10 assay: IL-10 ELISA of supernatant from IFNγ-primed THP-1 cells stimulated with SAC; format: cell-based, human; design: key: “+” indicates an increase in production; “−” indicates a decrease in production; settings: effect on expression level of IL-10 in THP-1 cells primed with IFNγ and stimulated with 0.01% SAC; test compound 0.01 μM to 20 μM
Experimental: as §1, §2, §3, §4, §5
C. Human IL-10 ELISA Protocol (e-Biosciences)
Cell Culture Supernatant (90 μL from THP-1 cells primed with IFNγ (50 ng/mL-1000 U/mL) and stimulated with 0.01% SAC)
To 10.5 mL PBS was added 50 μL of anti-IL10 capture antibody (2.5 μg/mL), mixed well and 100 μL of the coating solution was added to each well of the 96 well white plates from Pierce. The plates were covered and incubated overnight at 4° C.
The anti-IL10 antibody-coated plates were washed 2× using TBST (use plate washer) and blocked the using 200 μL of 0.5% Casein for 1.5-2 h at RT with shaking.
The plates were washed 2× using TBST and the supernatant (100 μL/well) was transferred to the above pre-blocked/IL10-antibody-coated 96 well plate and incubated at RT for 1.5 h with shaking.
The plate was washed 4× using TBST (plate washer) and 100 μL/well detection antibody solution prepared from 2 μL of biotin labeled anti-IL-10 antibody in 11 mL 1% BSA/PBS solution (1-5000 dilution) was added. The plates were incubated for 1 hour with shaking at RT.
as §6
After 45 min, the plate was washed with TBST 4× and 100 uL/well Super Signal ELISA Pico Chemiluminescent Substrate from Pierce (3.5 mL A+3.5 mL B+3.5 mL MQ water) was added, the plate was shaken for 1-2 minutes then read on a plate reader to quantify the amount of IL-10 secreted by the cells.

| Structure (SMILES) | IL-23 (IL-23) | IL-10 (IL-10) |
| --- | --- | --- |
| CN1C(C)(C)CC(Nc2nc(Nc3ccc(N4CCN(S(C)(=O)=O)CC4)c(C(F)(F)F)c3)ncc2F)CC1(C)C [Compound 1] | − |  |
| CN1CCN(c2ccc(Nc3ncc(F)c(NC4CC(C)(C)N(C)C(C)(C)C4)n3)cc2C(F)(F)F)CC1 [Compound 2] | − | − |
| CN1C(C)(C)CC(Nc2nc(Nc3ccc(N4CCN(S(C)(=O)=O)CC4)c(C(F)(F)F)c3)ncc2F)C1(C)C (centres unmarked) [Compound 3] | − | + |
| CN1CCN(c2ccc(Nc3ncc(F)c(NC4CC(C)(C)N(C)C4(C)C)n3)cc2C(F)(F)F)CC1 (centres unmarked) [Compound 4] | − | − |
| CN1C(C)(C)CC(Nc2nc(Nc3ccc(N4CCN(S(C)(=O)=O)CC4)c(Cl)c3)ncc2F)CC1(C)C [Compound 5] |  | + |
| CN1CCN(c2ccc(Nc3ncc(F)c(NC4CC(C)(C)N(C)C(C)(C)C4)n3)cc2Cl)CC1 [Compound 6] |  | + |
| CN1C(C)(C)CC(CNc2nc(Nc3ccc(N4CCN(S(C)(=O)=O)CC4)c(C(F)(F)F)c3)ncc2F)C1(C)C (centres unmarked) [Compound 7] | − | + |
| CN1CCN(S(=O)(=O)c2ccc(Nc3ncc(F)c(NC4CC(C)(C)N(C)C(C)(C)C4)n3)cc2Cl)CC1 [Compound 8] | − | + |
| CN1C(C)(C)CC(Nc2nc(Nc3ccc(S(=O)(=O)N4CCNCC4)c(Cl)c3)ncc2F)CC1(C)C [Compound 9] |  | + |
| CN1C(C)(C)CC(Nc2nc(Nc3ccc(N4CCN(S(C)(=O)=O)CC4)c(C(F)(F)F)c3)ncc2F)CC1(C)C [Compound 10] |  | + |
| CN1C(C)(C)CC(Nc2nc(Nc3ccc(N4CCN(S(=O)(=O)C5CC5)CC4)c(C(F)(F)F)c3)ncc2F)CC1(C)C [Compound 11] |  | + |
| CN1C(C)(C)CC(Nc2nc(Nc3ccc(N4CCN(S(C)(=O)=O)CC4)c(C#N)c3)ncc2F)CC1(C)C [Compound 12] |  | + |
| CN1C(C)(C)CC(Nc2nc(Nc3ccc(N4CCN(S(C)(=O)=O)CC4)c(OC(F)F)c3)ncc2F)CC1(C)C [Compound 13] |  | + |
| COc1ccc(Nc2ncc(F)c(NC3CC(C)(C)N(C)C(C)(C)C3)n2)cc1OC(F)F [Compound 14] |  | + |
| CN1C(C)(C)CC(Nc2nc(Nc3ccc(N4CCN(S(=O)(=O)C5CC5)CC4)c(Cl)c3)ncc2F)CC1(C)C [Compound 15] |  | + |
| CCN1C(=O)C(F)(F)Oc2cc(Nc3ncc(F)c(NC4CC(C)(C)N(C)C(C)(C)C4)n3)ccc21 [Compound 16] |  | + |
| CN1CCN(c2ccc(Nc3ncc(F)c(NC4CC(C)(C)N(C)C(C)(C)C4)n3)cc2Cl)CC1 [Compound 17] |  | − |
| CCOC(=O)c1cnc(Nc2ccc(N3CCN(S(C)(=O)=O)CC3)c(C(F)(F)F)c2)nc1NC1CC(C)(C)N(C)C(C)(C)C1 [Compound 18] | − | + |
| CCOC(=O)c1cnc(Nc2ccc(N3CCN(S(C)(=O)=O)CC3)c(Cl)c2)nc1NC1CC(C)(C)N(C)C(C)(C)C1 [Compound 19] | − | + |
| CN1C(C)(C)CC(Nc2nc(Nc3ccc(N4CCN(S(C)(=O)=O)CC4)c(C(F)(F)F)c3)ncc2[N+](=O)[O-])CC1(C)C [Compound 20] |  | + |
| CN1C(C)(C)CC(Nc2nc(Nc3ccc(N4CCN(S(C)(=O)=O)CC4)c(Cl)c3)ncc2[N+](=O)[O-])CC1(C)C [Compound 21] |  | + |
| CN1C(C)(C)CC(Nc2nc(Nc3ccc(N4CCN(S(C)(=O)=O)CC4)c(C(F)(F)F)c3)ncc2C#N)CC1(C)C [Compound 22] |  | + |
| CN1C(C)(C)CC(Nc2nc(Nc3ccc(N4CCN(S(C)(=O)=O)CC4)c(Cl)c3)ncc2C#N)CC1(C)C [Compound 23] | − | + |
| CN1C(C)(C)CC(Nc2nc(Nc3ccc(N4CCN(S(C)(=O)=O)CC4)c(C#N)c3)ncc2C#N)CC1(C)C [Compound 24] |  | + |
| CN1C(C)(C)CC(Nc2nc(Nc3ccc(N4CCN(S(C)(=O)=O)CC4)c(C(F)(F)F)c3)ncc2C(F)(F)F)CC1(C)C [Compound 25] | − | + |
| CN1C(C)(C)CC(Nc2nc(Nc3ccc(N4CCN(S(C)(=O)=O)CC4)c(Cl)c3)ncc2C(F)(F)F)CC1(C)C [Compound 26] |  | + |
